This is an account of results in patent US5494921A, “Fibrinogen receptor antagonists” (Merck & Co., Inc., priority 1994, dated 1996).

The test system of one experiment is gel-filtered human platelets. Nature of the experiment: Inhibition of ADP-stimulated platelet aggregation (IC50 Plaggin). Format: cell-based. Conditions: ADP-initiated (10 mM ADP) aggregation of gel-filtered human platelets, fibrinogen 100 ug/ml, Ca2+ 1 mM, 37° C. The protocol: Platelet aggregation is measured at 37° C. in a Chronolog aggregometer. The reaction mixture contains gel-filtered human platelets (2×10^8 per ml), fibrinogen (100 micrograms per ml (ug/ml)), Ca^2 +(1 mM), and the compound to be tested. The aggregation is initiated by adding […] ADP 1 minute after the other components are added. The reaction is then allowed to proceed for at least 2 minutes. The extent of inhibition of aggregation is expressed as the percentage of the rate of aggregation observed in the absence of inhibitor. The IC50 is the dose of a particular compound inhibiting aggregation by 50% relative to a control lacking the compound.
In addition to the following preparative procedures, several examples of in vitro bioactivity of compounds within the scope of the present invention are indicated. To illustrate, one test which is used to evaluate fibrinogen receptor antagonist activity is based on evaluation of inhibition of ADP-stimulated platelets. Aggregation requires that fibrinogen bind to and occupy the platelet fibrinogen receptor site. Inhibitors of fibrinogen binding inhibit aggregation. In the ADP-stimulated platelet aggregation assay used to determine inhibition associated with the compounds claimed in the instant invention, human platelets are isolated from fresh blood, collected into acid citrate/dextrose o by differential centrifugation followed by gel filtration on Sepharose 2B in divalent ion-free Tyrode's buffer (pH 7.4) containing 2% bovine serum albumin.
Take `CCCCS(=O)(=O)N[C@@H](CNC(=O)C1CC1C(=O)NCCC1CCNCC1)C(=O)O` (some centres unmarked): the half-inhibitory concentration (IC50) – broadly, the concentration that inhibits the measured activity by half – was 210 nM.
In turn, `CCCCS(=O)(=O)N[C@@H](CNC(=O)[C@@H]1C[C@H]1C(=O)NCCC1CCNCC1)C(=O)O` displayed a half-maximal inhibitory concentration (IC50) of 77 nM.
On the same count and under the same terms, as for `CCCCS(=O)(=O)N[C@@H](CNC(=O)[C@H]1C[C@@H]1C(=O)NCCC1CCNCC1)C(=O)O`, the figure is 580 nM.
The same measure, in the same setting: to `CCCCS(=O)(=O)N[C@@H](CCNC(=O)[C@@H]1C[C@H]1C(=O)NCCC1CCNCC1)C(=O)O` belongs 3500 nM; to `CCCCS(=O)(=O)N[C@@H](CCNC(=O)[C@H]1C[C@@H]1C(=O)NCCC1CCNCC1)C(=O)O`, 17000 nM.
On the same count and under the same terms, as for `CCCCS(=O)(=O)N[C@@H](CNC(=O)C1CC1CC(=O)NCCC1CCNCC1)C(=O)O` (some centres unmarked), the figure is 140 nM; as for `C[C@H](CC(=O)O)NC(=O)[C@@H]1C[C@H]1C(=O)NCCC1CCNCC1`, 17000 nM.

A further experiment deals with gp IIb/IIIa complex.
Experiment: not given
To be noted: cited from earlier work.
In the case of Echistatin, the “affinity for the gp IIb/IIIa complex” value is reported as “high affinity”.
